Laboratory results reported in patent US20170315126A1, “METHOD FOR SCREENING COMPOUND SPECIFICALLY SUPPRESSING FORMATION OF CAVEOLAE OF CANCER CELLS, SCREENING KIT, VECTOR AND TRANSFORMANT TO BE USED IN KIT, AND METHOD FOR SELECTING PATIENT FOR WHOM MOLECULARLY TARGETED DRUG IS INDICATED” (NATIONAL UNIVERSITY CORPORATION NAGOYA INSTITUTE OF …, priority 2014, published 2017).
Read-outs that look alike come from different tables or passages of the source.

B1: human Caveolin 1 (other, UniProt Q03135 2-178, looked up)
chain: SGGKYVDSEGHLYTVPIREQGNIYKPNNKAMADELSEKQVYDAHTKEIDLVNRDPKHLNDDVVKIDFEDVIAEPEGTHSFDGIWKASFTTFTVTKYWFYRLLSALFGIPMALIWGIYFAILSFLHIWAVVPCIKSFLIEIQCISRVYSIYVHTVCDPLFEAVGKIFSNVRINLQKEI
notes: whole, on cells; Endogenous in cell extracts or full length expressed from pCMVpuro-CAV1 in COS-7 cells; also called CAV1; endogenous CAV1
B2: Cavin-2 (other, human, UniProt O95810 2-425, looked up)
chain: GEDAAQAEKFQHPGSDMRQEKPSSPSPMPSSTPSPSLNLGNTEEAIRDNSQVNAVTVLTLLDKLVNMLDAVQENQHKMEQRQISLEGSVKGIQNDLTKLSKYQASTSNTVSKLLEKSRKVSAHTRAVKERMDRQCAQVKRLENNHAQLLRRNHFKVLIFQEENEIPASVFVKQPVSGAVEGKEELPDENKSLEETLHTVDLSSDDDLPHDEEALEDSAEEKVEESRAEKIKRSSLKKVDSLKKAFSRQNIEKKMNKLGTKIVSVERREKIKKSLTSNHQKISSGKSSPFKVSPLTFGRKKVREGESHAENETKSEDLPSSEQMPNDQEEESFAEGHSEASLASALVEGEIAEEAAEKATSRGSNSGMDSNIDLTIVEDEEEESVALEQAQKVRYEGSYALTSEEAERSDGDPVQPAVLQVHQTS
notes: whole, on cells; Detected with anti-Cavin-2 (Abcam) in IP-WB of cell extracts
B3: human Cavin-1 (other, UniProt Q6NZI2 1-390, looked up)
chain: MEDPTLYIVERPLPGYPDAEAPEPSSAGAQAAEEPSGAGSEELIKSDQVNGVLVLSLLDKIIGAVDQIQLTQAQLEERQAEMEGAVQSIQGELSKLGKAHATTSNTVSKLLEKVRKVSVNVKTVRGSLERQAGQIKKLEVNEAELLRRRNFKVMIYQDEVKLPAKLSISKSLKESEALPEKEGEELGEGERPEEDAAALELSSDEAVEVEEVIEESRAERIKRSGLRRVDDFKKAFSKEKMEKTKVRTRENLEKTRLKTKENLEKTRHTLEKRMNKLGTRLVPAERREKLKTSRDKLRKSFTPDHVVYARSKTAVYKVPPFTFHVKKIREGQVEVLKATEMVEVGADDDEGGAERGEAGDLRRGSSPDVHALLEITEESDAVLVDKSDSD
notes: whole, on cells; Intracellular protein; endogenous in cell extracts or full length expressed from pCMVpuro-Cavin-1 in COS-7 cells; also called endogenous Cavin-1; pCMVpuro-Cavin-1-WT

What was measured:
PC-9 and NCI-H1975 = assay: Cell proliferation by colorimetry (cell counting kit-8) after siRNA transfection; format: cell-based, human; details: 120 hours after transfection
Method: Transfection of the siRNA (20 nM each) was conducted in accordance with the manufacturer's instruction manual using lipofectamine RNAiMAX (manufactured by Invitrogen). Cells were recovered 72 hours after transfection for Western blotting analysis. Cells were also recovered 120 hours after transfection for analysis by colorimetry to measure cell proliferation.
siControl or siROR1, siCavin-1, or siCAV1 was transfected against the PC-9 or NCI-H1975 cell line to investigate the effects of silencing of ROR1, Cavin-1, and CAV1 on cell proliferation. A reaction was conducted using a cell counting kit-8 (Dojindo) 120 hours after transfection, the absorbance was measured by a plate reader, and colorimetry was conducted. Furthermore, this experiment was conducted three separate times, and the average values were graphed.

CAV1 = assay: Western blotting of CAV1 expression after siRNA transfection in pulmonary adenocarcinoma cell lines; format: cell-based, human; details: siRNA 20 nM
Method: Western blotting analysis and IP-WB analysis were conducted by the standard methods using an Immobilon-P filter (manufactured by Millipore Corp.) and an enhanced chemiluminescence system (manufactured by GE Healthcare Inc.). pCMVpuro-Cavin-1-WT was coexpressed with various ROR1 expression constructs such as the wild type (WT), TKΔ473-564 (TKΔ1), TK564-655 (TKΔ2), TKΔ655-746 (TKΔ3), TKΔ473-655 (TKΔ1+×2), TKΔ564-746 (TKΔ2+Δ3), and TKΔ473-746 (TKA1+Δ2+A3) to identify the binding site of ROR1 and Cavin-1. pCMVpuro-CAV1-WT was coexpressed with ROR1 expression constructs such as the wild type (WT), TKΔ473-564 (TKΔ1), TKΔ564-655 (TKΔ2), TKΔ655-746 (TKΔ3), ST1Δ748-782 (ΔST1), PΔ784-851 (ΔP), and ST2Δ853 to 876 (ΔST2) to identify the binding site of ROR1 and CAV1. For these, the cells were recovered 24 hours after transfection by Fugene6 (Promega) using COS-7 cells, and IP-WB analysis was conducted.
Transfection of the siRNA (20 nM each) was conducted in accordance with the manufacturer's instruction manual using lipofectamine RNAiMAX (manufactured by Invitrogen). […] Cells were also recovered 120 hours after transfection for analysis by colorimetry to measure cell proliferation.

NCI-H1975 cells = details: cited from earlier work
PC-9 cells = details: cited from earlier work
[1] = target: T1, human ROR1 (receptor tyrosine kinase-like orphan receptor 1) (human, UniProt Q01973 30-937); assay: IP-WB of ROR1 constructs coexpressed with CAV1 in COS-7 cells
T1 construct: whole, on cells; also called endogenous ROR1; ROR1-WT
T1 sequence (Q01973 30-937): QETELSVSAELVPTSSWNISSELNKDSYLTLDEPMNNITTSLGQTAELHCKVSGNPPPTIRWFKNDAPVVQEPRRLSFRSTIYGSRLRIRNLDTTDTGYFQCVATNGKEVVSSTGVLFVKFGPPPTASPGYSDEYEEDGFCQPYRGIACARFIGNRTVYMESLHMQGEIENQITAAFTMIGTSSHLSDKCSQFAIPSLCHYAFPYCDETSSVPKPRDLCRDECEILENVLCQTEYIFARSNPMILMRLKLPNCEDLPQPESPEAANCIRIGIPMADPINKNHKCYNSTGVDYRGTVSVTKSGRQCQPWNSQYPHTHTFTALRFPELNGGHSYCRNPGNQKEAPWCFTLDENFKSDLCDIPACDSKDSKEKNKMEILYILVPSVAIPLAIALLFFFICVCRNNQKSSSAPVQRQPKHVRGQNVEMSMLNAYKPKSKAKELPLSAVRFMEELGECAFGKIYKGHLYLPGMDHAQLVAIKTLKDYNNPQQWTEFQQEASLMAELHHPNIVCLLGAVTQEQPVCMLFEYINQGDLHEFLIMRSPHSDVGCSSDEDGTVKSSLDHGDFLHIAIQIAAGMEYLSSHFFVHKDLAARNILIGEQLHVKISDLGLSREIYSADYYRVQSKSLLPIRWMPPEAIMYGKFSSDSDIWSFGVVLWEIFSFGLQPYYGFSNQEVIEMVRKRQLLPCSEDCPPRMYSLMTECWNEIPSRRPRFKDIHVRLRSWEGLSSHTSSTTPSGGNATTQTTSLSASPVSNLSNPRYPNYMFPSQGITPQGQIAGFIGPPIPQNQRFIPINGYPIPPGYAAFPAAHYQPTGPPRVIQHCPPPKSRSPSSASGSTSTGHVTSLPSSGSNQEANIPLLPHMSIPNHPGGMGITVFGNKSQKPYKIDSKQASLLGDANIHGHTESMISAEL
Method: For these, the cells were recovered 24 hours after transfection by Fugene6 (Promega) using COS-7 cells, and IP-WB analysis was conducted.

human Cavin-1 = target: B3; assay: IP-WB of NCI-H1975 cell extract 24 hours after transfection of siROR1
[2] = target: T1, human ROR1 (receptor tyrosine …); assay: IP-WB of endogenous proteins in octyl glucoside cell extracts
[3] = target: T1, human ROR1 (receptor tyrosine …); assay: IP-WB of octyl glucoside extracts of NCI-H1975 and SK-LU-1 cells
[4] = NCI-H1975, 72 hours after transfection

Molecule: siCavin-1#1: RNA oligomer for RNAi against human Cavin-1, 5′-CUCCAAGACCGCGGUCUACAA-3′ (SEQ ID No: 18) (listed as RNA, further chemistry not given here)
cell proliferation (colorimetry) (PC-9 and NCI-H1975): inhibit cell proliferation

Molecule: siIGF-IR#1: RNA oligomer for RNAi against human IGF-IR, 5′-GGAAUUGCAUGGUAGCCGAUU-3′ (SEQ ID No: 16) (listed as RNA, further chemistry not given here)
CAV1 expression (Western blot) (CAV1; NCI-H358): downregulation of CAV1 was also found
CAV1 expression (Western blot) (CAV1; [4]): downregulate CAV1

Molecule: siIGF-IR#2: RNA oligomer for RNAi against human IGF-IR, 5′-CUGACUACAGGGAUCUCAUUU-3′ (SEQ ID No: 17) (listed as RNA, further chemistry not given here)
CAV1 expression (Western blot) (CAV1; NCI-H358): downregulation of CAV1 was also found
CAV1 expression (Western blot) (CAV1; [4]): downregulate CAV1

Molecule: siCavin-1#2: RNA oligomer for RNAi against human Cavin-1, 5′-CCCGCCGAGCGGCGCGAGAAA-3′ (SEQ ID No: 19) (listed as RNA, further chemistry not given here)
cell proliferation (colorimetry) (PC-9 and NCI-H1975): inhibit cell proliferation

Molecule: CC#CC(=O)Nc1ccc2ncnc(Nc3cccc(Br)c3)c2c1 [CL-387, 785]
sensitivity of cells to EGFR-TKI (NCI-H1975 cells; NCI-H1975 in the presence of HGF): resistance

Molecule: COc1cc2ncnc(Nc3ccc(F)c(Cl)c3)c2cc1OCCCN1CCOCC1 [gefitinib, Gefitinib]
sensitivity of cells to EGFR-TKI (PC-9 cells; PC-9, no ligand): sensitive
sensitivity of cells to EGFR-TKI (PC-9 cells; PC-9 in the presence of HGF): resistance
sensitivity of cells to EGFR-TKI (NCI-H1975 cells; NCI-H1975 (EGFR T790M double mutation), no ligand): resistance

Molecule: B1
binding result [1]: binds
binding result (human Cavin-1): binds

Molecule: B2
binding result [2]: no binding

Molecule: B3
binding result [3]: binds
